One block for each compound: values may come before it.
How the values were obtained:
[1] = system: intracellular ribonuclease in HEK 293 cells; test: Evaluation of harmfulness to cells using fluorescently labeled double-stranded RNA (intracellular RNA degradation, FRET fluorescence); settings: Mercury II Chrolide 100 ng/ml
Source text: That is, the present inventors designed and prepared a double-stranded RNA comprising an RNA strand labeled with a fluorescent dye A that emits fluorescence, and an RNA strand labeled with a fluorescent dye B that quenches emission from a fluorescent dye in the vicinity thereof. When the double-stranded RNA is in a double-stranded state, the fluorescence is in a quenched state due to occurrence of fluorescence resonance energy transfer (FRET) (Non-patent Document 4) between the two kinds of fluorescent dyes.
[…] After mixing, each reaction liquid was incubated at room temperature for 20 minutes, and then added to HEK 293 cells (2×10^5 cells/ml in 96 well plate), which are human cells. From Hour 0 to Hour 8, fluorescence was measured at 519 nm with excitation at 488 nm using a Microplate Reader SH-9000 (Corona Electric) at one-hour intervals. The experiment was carried out for n=3.
The result obtained by dividing the fluorescence values at Hours 1 to 8 by the fluorescence value at Hour 0 is shown in FIG. 5.
As reaction liquids, systems each containing 50 μL of Opti-MEM (Life Technologies), 1 μL of Lipofectamine 2000 (Life Technologies), 200 nM double-stranded RNA (the same RNA as in Example 1), and 0 ng/ml, 1 ng/ml, 100 ng/ml, or 100 μg/ml Cisplatin (Wako) were provided. […]

[2] = system: HEK 293 cells; settings: hydrogen peroxide 0.01, 1 or 100 μM, measured at Hour 2, 4, 6, 8, n=3
Method: The viable cell count was determined by the absorbance using a Cell Counting Kit-8 (Dojindo).
The cell systems at Hour 2, 4, 6, and 8 were subjected to measurement of the absorbance at 450 nm using a Cell Counting Kit-8 (Dojindo) and a Microplate Reader SH-9000 (Corona Electric) to determine the viable cell count. The experiment was carried out for n=3.

[3] = target: T1, Ribonuclease (DNase free) Solution (ribonuclease; RNase) (Bos taurus, UniProt P61823); settings: 100 μM hydrogen peroxide
T1 sequence (P61823 27-150): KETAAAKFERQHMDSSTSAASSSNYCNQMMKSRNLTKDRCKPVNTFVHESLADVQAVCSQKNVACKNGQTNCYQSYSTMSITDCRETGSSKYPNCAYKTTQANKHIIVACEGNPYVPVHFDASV
Method: In this experiment, how hydrogen peroxide influences the fluorescently labeled double-stranded RNA and a Ribonuclease (DNase free) Solution (ribonuclease; RNase) (Nippon Gene) was investigated.
A reaction liquid containing 200 nM double-stranded RNA in Opti-MEM (Life Technologies) (50 μL) was provided, and fluorescence was measured at 519 nm with excitation at 488 nm using a Microplate Reader SH-9000 (Corona Electric) (the result at Hour 0). Thereafter, systems in each of which hydrogen peroxide was added at 0 or 100 μM, and Ribonuclease (DNase free) Solution (ribonuclease; RNase) (Nippon Gene) was added at 0 or 0.4 mg/ml, were provided, and each system was incubated at room temperature for 1, 2, or 4 hours, followed by measurement of fluorescence at 519 nm with excitation at 488 nm using a Microplate Reader SH-9000 (the result at Hour 1, 2, or 4). The experiment was carried out for n=3.
The result obtained by dividing the fluorescence value at Hour 1, 2, or 4 by the fluorescence value at Hour 0 is shown in FIG. 4.

[4] = target: T1, Ribonuclease (DNase free) Solution (ribonuclease; RNase); test: Degradation of the fluorescently labeled double-stranded RNA (FRET probe) by ribonuclease, cell-free; format: biochemical; set-up: purchased Nippon Gene; settings: 200 nM double-stranded RNA in Opti-MEM, 0.4 mg/ml RNase, room temperature 1 hour, vs no RNase, n=3
Source text: First, FRET-Alexa-RNA: 5′-(Alexa Flour 488)-[…]-3′ (SEQ ID NO: 1) as a reporter strand, and FRET-BHQ1-RNA: (5′-[…]-(BHQ1)-3′ (SEQ ID NO:2) as a quencher strand were provided. The base at the 5′ end of the reporter strand is labeled with Alexa Flour 488 through a C6 linker, and the base at the 3′ end of the quencher strand is labeled with BHQ1 (Black Hole Quencher 1) without use of a linker (FIG. 2).
The reporter strand and the quencher strand were mixed at a ratio of 1:2 (molar ratio) in a solution of 50 mM HEPES, 500 mM KCl, and 25 mM MgCl2, and the resulting solution was incubated at 99° C. for 5 minutes, at 65° C. for 30 minutes, and then at 25° C. for 30 minutes to prepare a double-stranded RNA.
The experiment was carried out for n=3.

Compound: [Cl][Hg][Cl] [Mercury II Chrolide]
concentration dependence of the suppression of the fluorescence increase ([1]; 10 μg/ml or 1 mg/ml): dependent on the Mercury II Chrolide concentration | increase in the fluorescence value with time (Hours 1 to 8 divided by Hour 0) ([1]; 10 μg/ml or 1 mg/ml vs 0 ng/ml, Hour 0 to 8, n=3): suppressed

time at which a decrease in the absorbance (relative to 0 μM taken as 1) was first found [2]: 8 h | fluorescence value (Hour 1, 2 or 4 divided by Hour 0) of system with RNase, compared with RNase system ([3]; 200 nM double-stranded RNA, 0.4 mg/ml RNase, room temperature, n=3): almost the same | fluorescence value (Hour 1, 2 or 4 divided by Hour 0) of system without RNase, vs system with neither RNase nor hydrogen peroxide ([3]; 200 nM double-stranded RNA, no RNase, room temperature, n=3): almost the same
Compound: OO [hydrogen peroxide]
influence on fluorescence value of the RNA FRET Probe and on RNase activity (cell-free) ([3]; cell-free, 1-4 hours): influences neither the fluorescence value of the RNA FRET Probe nor the RNase activity

Compound: fluorescently labeled double-stranded RNA: Double-stranded RNA of FRET-Alexa-RNA reporter strand (SEQ ID NO: 1, Alexa Flour 488) and FRET-BHQ1-RNA quencher strand (SEQ ID NO: 2) (sense CAUAAUCCACCUCCCACUAUUCC; antisense GGAAUAGUGGGAGGUGGAUUAUG; RNA, backbone not given here; Alexa Fluor 488 on reporter, BHQ1 on quencher)
fluorescence intensity (fluorescence value at Hour 1 divided by value at Hour 0) on addition of RNase [4]: obviously increased
